Patent publication US11572399B2, “Long-acting GIP peptide analogues” (University of Copenhagen, priority 2017, dated 2023)
Where two headings read alike, the source gives them in different places.

Tests used:
human GIP receptor [1] = molecular target: T1, human GIP receptor (Homo sapiens, UniProt P48546); test: cAMP accumulation assay, agonism (ligand alone); assay type: cell-based; settings: COS-7 cells, Table 1; for Emax: COS-7, intrinsic cAMP activity
T1 construct: host or cells: COS-7, transient transfection (calcium phosphate), cDNA in pCMV-Script
T1 sequence (P48546 22-466): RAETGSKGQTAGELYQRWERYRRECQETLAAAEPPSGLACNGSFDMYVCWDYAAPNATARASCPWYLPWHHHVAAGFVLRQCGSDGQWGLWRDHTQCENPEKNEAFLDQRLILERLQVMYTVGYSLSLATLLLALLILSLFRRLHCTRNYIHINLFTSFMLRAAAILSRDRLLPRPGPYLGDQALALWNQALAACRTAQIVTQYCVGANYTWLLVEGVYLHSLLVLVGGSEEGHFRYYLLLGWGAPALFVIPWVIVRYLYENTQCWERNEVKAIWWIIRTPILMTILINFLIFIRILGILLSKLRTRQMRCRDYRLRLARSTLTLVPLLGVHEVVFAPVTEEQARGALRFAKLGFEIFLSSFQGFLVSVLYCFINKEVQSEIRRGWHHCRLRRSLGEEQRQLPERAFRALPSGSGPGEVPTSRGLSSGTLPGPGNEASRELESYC

human GIP receptor [2] = molecular target: T1, human GIP receptor; test: 125I-human GIP competition binding assay, in the presence and absence of 2% HSA; settings: for Fold change HSA (2%)/Casein (0.1%): IC50 (plus HSA)/IC50 (minus HSA);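 on all read-outs here: nonspecific binding taken as radioligand bound to untransfected cells, IC50 obtained from nonlinear regression fits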
[3] = Table 3b, initial data, read-out: Binding IC50
[4] = heterologous competition binding, transiently transfected COS-7 cells expressing the human GIP receptor, read-out: Binding
[5] = binding in 0.1% casein (absence of HSA), log value, read-out: logIC50 0.1% casein (converted)

SMILES	Emax (human GIP receptor [1])	IC50 (human GIP receptor [2]; [4])	also measured
CCCCCCCCCCCCCCCC(=O)NCCCC[C@H](NC(=O)[C@H](CC(=O)O)NC(=O)[C@H](CCSC)NC(=O)[C@H](C)NC(=O)[C@@H](NC(=O)[C@H](CO)NC(=O)[C@H](Cc1ccc(O)cc1)NC(=O)[C@H](CC(=O)O)NC(=O)[C@H](CO)NC(=O)[C@@H](NC(=O)[C@H](Cc1ccccc1)NC(=O)[C@@H](NC(=O)CNC(=O)[C@@H](N)CCC(=O)O)[C@@H](C)O)[C@@H](C)CC)[C@@H](C)CC)C(=O)N[C@H](C(=O)N[C@@H](Cc1c[nH]cn1)C(=O)N[C@@H](CCC(N)=O)C(=O)N[C@@H](CCC(N)=O)C(=O)N[C@@H](CC(=O)O)C(=O)N[C@@H](Cc1ccccc1)C(=O)N[C@H](C(=O)N[C@@H](CC(N)=O)C(=O)N[C@@H](Cc1c[nH]c2ccccc12)C(=O)N[C@@H](CC(C)C)C(=O)N[C@@H](CC(C)C)C(=O)N[C@@H](C)C(=O)N[C@@H](CCC(N)=O)C(=O)N[C@@H](CCCCN)C(N)=O)C(C)C)[C@@H](C)CC [AT105, [hGIP(3-30)NH2—C16/16]]	34%	522 nM	IC50 (human GIP receptor [2]; [3]): 522 nM
CCCCCCCCCCCCCCCCCC(=O)NCCCC[C@H](NC(=O)[C@H](CC(=O)O)NC(=O)[C@H](CCSC)NC(=O)[C@H](C)NC(=O)[C@@H](NC(=O)[C@H](CO)NC(=O)[C@H](Cc1ccc(O)cc1)NC(=O)[C@H](CC(=O)O)NC(=O)[C@H](CO)NC(=O)[C@@H](NC(=O)[C@H](Cc1ccccc1)NC(=O)[C@@H](NC(=O)CNC(=O)[C@@H](N)CCC(=O)O)[C@@H](C)O)[C@@H](C)CC)[C@@H](C)CC)C(=O)N[C@H](C(=O)N[C@@H](CCCNC(=N)N)C(=O)N[C@@H](CCC(N)=O)C(=O)N[C@@H](CCC(N)=O)C(=O)N[C@@H](CC(=O)O)C(=O)N[C@@H](Cc1ccccc1)C(=O)N[C@H](C(=O)N[C@@H](CC(N)=O)C(=O)N[C@@H](Cc1c[nH]c2ccccc12)C(=O)N[C@@H](CC(C)C)C(=O)N[C@@H](CC(C)C)C(=O)N[C@@H](C)C(=O)N[C@@H](CCC(N)=O)C(=O)N[C@@H](CCCNC(=N)N)C(N)=O)C(C)C)[C@@H](C)CC [AT162, [hGIP(3-30)NH2[H18R; K30R]-C18/16]]	44%		Fold change in affinity, IC50 (plus HSA)/IC50 (minus HSA) (human GIP receptor [2]; presence vs absence of 2% HSA, proxy for albumin binding): 5.6 fold
CCCCCCCCCCCCCCCCCC(=O)NCCCC[C@H](NC(=O)[C@H](CCC(N)=O)NC(=O)[C@H](C)NC(=O)[C@H](CC(C)C)NC(=O)[C@H](CC(C)C)NC(=O)[C@H](Cc1c[nH]c2ccccc12)NC(=O)[C@H](CC(N)=O)NC(=O)[C@@H](NC(=O)[C@H](Cc1ccccc1)NC(=O)[C@H](CC(=O)O)NC(=O)[C@H](CCC(N)=O)NC(=O)[C@H](CCC(N)=O)NC(=O)[C@H](Cc1c[nH]cn1)NC(=O)[C@@H](NC(=O)[C@H](CCCCN)NC(=O)[C@H](CC(=O)O)NC(=O)[C@H](CCSC)NC(=O)[C@H](C)NC(=O)[C@@H](NC(=O)[C@H](CO)NC(=O)[C@H](Cc1ccc(O)cc1)NC(=O)[C@H](CC(=O)O)NC(=O)[C@H](CO)NC(=O)[C@@H](NC(=O)[C@H](Cc1ccccc1)NC(=O)[C@@H](N)[C@@H](C)O)[C@@H](C)CC)[C@@H](C)CC)[C@@H](C)CC)C(C)C)C(N)=O [AT129, [hGIP(5-30)NH2—C18/30]]	0%		IC50 (human GIP receptor [2]; heterologous competition binding, transiently transfected COS-7 cells expressing the human GIP receptor, log value of the nM column, read-out: Binding log (converted)): 126000 nM
CCCCCCCCCCCCCC(=O)NCCCC[C@H](NC(=O)[C@H](CC(=O)O)NC(=O)[C@H](CCSC)NC(=O)[C@H](C)NC(=O)[C@@H](NC(=O)[C@H](CO)NC(=O)[C@H](Cc1ccc(O)cc1)NC(=O)[C@H](CC(=O)O)NC(=O)[C@H](CO)NC(=O)[C@@H](NC(=O)[C@H](Cc1ccccc1)NC(=O)[C@@H](N)[C@@H](C)O)[C@@H](C)CC)[C@@H](C)CC)C(=O)N[C@H](C(=O)N[C@@H](Cc1c[nH]cn1)C(=O)N[C@@H](CCC(N)=O)C(=O)N[C@@H](CCC(N)=O)C(=O)N[C@@H](CC(=O)O)C(=O)N[C@@H](Cc1ccccc1)C(=O)N[C@H](C(=O)N[C@@H](CC(N)=O)C(=O)N[C@@H](Cc1c[nH]c2ccccc12)C(=O)N[C@@H](CC(C)C)C(=O)N[C@@H](CC(C)C)C(=O)N[C@@H](C)C(=O)N[C@@H](CCC(N)=O)C(=O)N[C@@H](CCCCN)C(N)=O)C(C)C)[C@@H](C)CC [AT122, [hGIP(5-30)NH2—C14/16]]	0%		Fold change HSA (2%)/Casein (0.1%) (human GIP receptor [2]): 4.9; IC50 (human GIP receptor [2]; [5]): 1260 nM
CCCCCCCCCCCCCCCC(=O)N[C@@H](CCC(=O)O)C(=O)NCC(=O)N[C@H](C(=O)N[C@@H](Cc1ccccc1)C(=O)N[C@H](C(=O)N[C@@H](CO)C(=O)N[C@@H](CC(=O)O)C(=O)N[C@@H](Cc1ccc(O)cc1)C(=O)N[C@@H](CO)C(=O)N[C@H](C(=O)N[C@@H](C)C(=O)N[C@@H](CCSC)C(=O)N[C@@H](CC(=O)O)C(=O)N[C@@H](CCCCN)C(=O)N[C@H](C(=O)N[C@@H](Cc1c[nH]cn1)C(=O)N[C@@H](CCC(N)=O)C(=O)N[C@@H](CCC(N)=O)C(=O)N[C@@H](CC(=O)O)C(=O)N[C@@H](Cc1ccccc1)C(=O)N[C@H](C(=O)N[C@@H](CC(N)=O)C(=O)N[C@@H](Cc1c[nH]c2ccccc12)C(=O)N[C@@H](CC(C)C)C(=O)N[C@@H](CC(C)C)C(=O)N[C@@H](C)C(=O)N[C@@H](CCC(N)=O)C(=O)N[C@@H](CCCCN)C(N)=O)C(C)C)[C@@H](C)CC)[C@@H](C)CC)[C@@H](C)CC)[C@@H](C)O [AT104, [hGIP(3-30)NH2—C16/3]]	81%	75 nM	IC50 (human GIP receptor [2]; [3]): 75 nM; Binding fold (paired) (human GIP receptor [2]; fold decrease in affinity compared to GIP(3-30)NH2, Table 3b): 4.9 fold
CCCCCCCCCCCCCCCCCC(=O)N[C@H](C(=O)N[C@@H](Cc1ccccc1)C(=O)N[C@H](C(=O)N[C@@H](CO)C(=O)N[C@@H](CC(=O)O)C(=O)N[C@@H](Cc1ccc(O)cc1)C(=O)N[C@@H](CO)C(=O)N[C@H](C(=O)N[C@@H](C)C(=O)N[C@@H](CCSC)C(=O)N[C@@H](CC(=O)O)C(=O)N[C@@H](CCCCN)C(=O)N[C@H](C(=O)N[C@@H](Cc1c[nH]cn1)C(=O)N[C@@H](CCC(N)=O)C(=O)N[C@@H](CCC(N)=O)C(=O)N[C@@H](CC(=O)O)C(=O)N[C@@H](Cc1ccccc1)C(=O)N[C@H](C(=O)N[C@@H](CC(N)=O)C(=O)N[C@@H](Cc1c[nH]c2ccccc12)C(=O)N[C@@H](CC(C)C)C(=O)N[C@@H](CC(C)C)C(=O)N[C@@H](C)C(=O)N[C@@H](CCC(N)=O)C(=O)N[C@@H](CCCCN)C(N)=O)C(C)C)[C@@H](C)CC)[C@@H](C)CC)[C@@H](C)CC)[C@@H](C)O [AT127, [hGIP(5-30)NH2—C18/5]]	0%		Fold change HSA (2%)/Casein (0.1%) (human GIP receptor [2]): 0.0; IC50 (human GIP receptor [2]; [5]): 1580 nM
CCCCCCCCCCCC(=O)NCCCC[C@H](NC(=O)[C@H](CC(=O)O)NC(=O)[C@H](CCSC)NC(=O)[C@H](C)NC(=O)[C@@H](NC(=O)[C@H](CO)NC(=O)[C@H](Cc1ccc(O)cc1)NC(=O)[C@H](CC(=O)O)NC(=O)[C@H](CO)NC(=O)[C@@H](NC(=O)[C@H](Cc1ccccc1)NC(=O)[C@@H](NC(=O)CNC(=O)[C@@H](N)CCC(=O)O)[C@@H](C)O)[C@@H](C)CC)[C@@H](C)CC)C(=O)N[C@H](C(=O)N[C@@H](Cc1c[nH]cn1)C(=O)N[C@@H](CCC(N)=O)C(=O)N[C@@H](CCC(N)=O)C(=O)N[C@@H](CC(=O)O)C(=O)N[C@@H](Cc1ccccc1)C(=O)N[C@H](C(=O)N[C@@H](CC(N)=O)C(=O)N[C@@H](Cc1c[nH]c2ccccc12)C(=O)N[C@@H](CC(C)C)C(=O)N[C@@H](CC(C)C)C(=O)N[C@@H](C)C(=O)N[C@@H](CCC(N)=O)C(=O)N[C@@H](CCCCN)C(N)=O)C(C)C)[C@@H](C)CC [AT154, [hGIP(3-30)NH2—C12/16]]		27 nM	cAMP agonism Emax (human GIP receptor [1]; intrinsic cAMP activity): 0%
CC[C@H](C)[C@H](NC(=O)[C@H](CO)NC(=O)[C@H](Cc1ccc(O)cc1)NC(=O)[C@H](CC(=O)O)NC(=O)[C@H](CO)NC(=O)[C@@H](NC(=O)[C@H](Cc1ccccc1)NC(=O)[C@@H](NC(=O)CNC(=O)[C@@H](N)CCCCNC(=O)CCCCCCCCCCCCCCC(=O)O)[C@@H](C)O)[C@@H](C)CC)C(=O)N[C@@H](C)C(=O)N[C@@H](CCSC)C(=O)N[C@@H](CC(=O)O)C(=O)N[C@@H](CCCCN)C(=O)N[C@H](C(=O)N[C@@H](Cc1c[nH]cn1)C(=O)N[C@@H](CCC(N)=O)C(=O)N[C@@H](CCC(N)=O)C(=O)N[C@@H](CC(=O)O)C(=O)N[C@@H](Cc1ccccc1)C(=O)N[C@H](C(=O)N[C@@H](CC(N)=O)C(=O)N[C@@H](Cc1c[nH]c2ccccc12)C(=O)N[C@@H](CC(C)C)C(=O)N[C@@H](CC(C)C)C(=O)N[C@@H](C)C(=O)N[C@@H](CCC(N)=O)C(=O)N[C@@H](CCCCN)C(N)=O)C(C)C)[C@@H](C)CC [AT294, [hGIP(3-30)NH2[E3K]-C16diacid/3]]	74%		
CC[C@H](C)[C@H](NC(=O)[C@H](CO)NC(=O)[C@H](Cc1ccc(O)cc1)NC(=O)[C@H](CC(=O)O)NC(=O)[C@H](CO)NC(=O)[C@@H](NC(=O)[C@H](Cc1ccccc1)NC(=O)[C@@H](N)CCCCNC(=O)CCCCCCCCCCCCCCC(=O)O)[C@@H](C)CC)C(=O)N[C@@H](C)C(=O)N[C@@H](CCSC)C(=O)N[C@@H](CC(=O)O)C(=O)N[C@@H](CCCCN)C(=O)N[C@H](C(=O)N[C@@H](Cc1c[nH]cn1)C(=O)N[C@@H](CCC(N)=O)C(=O)N[C@@H](CCC(N)=O)C(=O)N[C@@H](CC(=O)O)C(=O)N[C@@H](Cc1ccccc1)C(=O)N[C@H](C(=O)N[C@@H](CC(N)=O)C(=O)N[C@@H](Cc1c[nH]c2ccccc12)C(=O)N[C@@H](CC(C)C)C(=O)N[C@@H](CC(C)C)C(=O)N[C@@H](C)C(=O)N[C@@H](CCC(N)=O)C(=O)N[C@@H](CCCCN)C(N)=O)C(C)C)[C@@H](C)CC [AT293, [hGIP(5-30)NH2[T5KK]-C16diacid/5]]	0%		
